In article PMC7496286, “The Selectivity of Fosfosal for STAT5b over STAT5a is Mediated by Arg566 in the Linker Domain” (Chembiochem, 2020):
Substitutions are numbered along the chain they refer to.

What was measured:
STAT5b Arg566Ala = biological target: T1, STAT5b Arg566Ala (Homo sapiens, UniProt P51692, R566A); experiment: FP-based competitive binding assay, STAT5b Arg566Ala
T1 construct: His; made in house
T1 sequence (P51692 1-787 R566A): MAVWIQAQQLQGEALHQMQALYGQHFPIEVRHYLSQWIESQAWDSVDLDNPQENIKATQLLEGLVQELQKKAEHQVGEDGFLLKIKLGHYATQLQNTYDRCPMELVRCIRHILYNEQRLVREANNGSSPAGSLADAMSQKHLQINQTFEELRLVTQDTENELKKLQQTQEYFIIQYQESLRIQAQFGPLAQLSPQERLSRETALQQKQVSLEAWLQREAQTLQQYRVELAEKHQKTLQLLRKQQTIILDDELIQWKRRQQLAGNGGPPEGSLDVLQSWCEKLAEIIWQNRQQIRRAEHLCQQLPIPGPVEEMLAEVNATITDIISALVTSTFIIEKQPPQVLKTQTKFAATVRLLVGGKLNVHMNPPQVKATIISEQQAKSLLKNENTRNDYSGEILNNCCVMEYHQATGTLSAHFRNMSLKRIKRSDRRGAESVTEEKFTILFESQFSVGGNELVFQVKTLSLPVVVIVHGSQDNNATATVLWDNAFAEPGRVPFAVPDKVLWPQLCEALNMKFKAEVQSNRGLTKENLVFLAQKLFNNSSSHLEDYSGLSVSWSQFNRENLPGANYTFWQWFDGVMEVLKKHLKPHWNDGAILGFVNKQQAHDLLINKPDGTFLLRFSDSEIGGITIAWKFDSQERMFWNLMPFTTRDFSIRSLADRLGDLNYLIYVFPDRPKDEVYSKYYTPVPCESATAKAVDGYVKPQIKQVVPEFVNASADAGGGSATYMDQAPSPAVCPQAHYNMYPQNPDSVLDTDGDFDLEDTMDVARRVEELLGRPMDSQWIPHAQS
Protocol: (§1) Fluorescence polarization assays
(§2) The ability of test compounds to displace 5-carboxyfluorescein-GY(PO3H2)LVLDKW (final concentration: 10 nM) from the SH2 domain of STAT5a/b proteins was analyzed. Proteins […]
(§3) was applied in dilution series comprising the following concentrations: 0.024 – 200 µM […]
(§4) and 0.146 – 600 µM (STAT5b Arg566Glu), respectively. The assays were performed in buffer containing 10 mM Tris, 50 mM NaCl, 1 mM DTT, 1 mM EDTA and 0.1% (v/v) NP-40. Fosfosal was dissolved in DMSO. STAT5a/b proteins and fosfosal were incubated at room temperature for 1 h before adding peptide. Samples were transferred to 384-well microtiter plates and fluorescence polarization was read after a further 1 h incubation time. All measurements were performed in triplicate (n=3), except for STAT5b (n=6) and STAT5a Trp566Arg (n=4). Percent binding was calculated based on a logarithmic curve fit using OriginPro 8G software. IC50 values were converted to Ki values using the published equation.[4] […]
(§5) [4] Z. Nikolovska-Coleska, R. Wang, X. Fang, H. Pan, Y. Tomita, P. Li, P. P. Roller, K.
(§6) Krajewski, N. G. Saito, J. A. Stuckey, S. Wang, Anal. Biochem. 2004, 332, 261-273.

STAT5b Arg566Glu = biological target: T2, STAT5b Arg566Glu (Homo sapiens, UniProt P51692, R566E); experiment: FP-based competitive binding assay, STAT5b Arg566Glu
T2 construct: His; made in house
T2 sequence (P51692 1-787 R566E): T1 sequence (P51692 1-787 R566A) with A566E
Protocol: as §1, §2, §3, §4

[1] = biological target: T3, STAT5b-7M (Arg566Trp/Gln636Pro/Met639Asn/Phe640Leu/Met644Lys/Asn664Ser/Tyr679Phe) (Homo sapiens, UniProt P51692, F640L/M639N/M644K/N664S/Q636P/R566W/Y679F); experiment: FP-based competitive binding assay, STAT5b-7M
T3 construct: His; made in house
T3 sequence (P51692 1-787 R566W/Q636P/M639N/F640L/M644K/N664S/Y679F): T1 sequence (P51692 1-787 R566A) with A566W, Q636P, M639N, F640L, M644K, N664S, Y679F
Protocol: as §1, §2, §3, §4, §5, §6

| SMILES | Kd (STAT5b Arg566Ala) | Kd (STAT5b Arg566Glu) | Kd [1] | inhibition at 600 µM (STAT5b Arg566Ala; STAT5b Arg566Ala, 600 μM) | % inhibition at 600 μM (STAT5b Arg566Glu; STAT5b Arg566Glu, up to 600 μM) | IC50 ([1]; STAT5b-7M) | Ki ([1]; STAT5b-7M, Ki calculated from IC50) |
| --- | --- | --- | --- | --- | --- | --- | --- |
| CC(C)C[C@H](NC(=O)[C@H](Cc1ccc(OP(=O)(O)O)cc1)NC(=O)CNC(=O)c1ccc2c(c1)C(=O)OC21c2ccc(O)cc2Oc2cc(O)ccc21)C(=O)N[C@H](C(=O)N[C@@H](CC(C)C)C(=O)N[C@@H](CC(=O)O)C(=O)N[C@@H](CCCCN)C(=O)N[C@@H](Cc1c[nH]c2ccccc12)C(=O)O)C(C)C [5-carboxyfluorescein-GY(PO3H2)LVLDKW] | 567 nM | 2000 nM | 246 nM | – | – | – | – |
| O=C(O)c1ccccc1OP(=O)(O)O [fosfosal, O‐phosphorylated salicylic acid] | – | – | – | 22 ± 3% | no inhibition | 379000 ± 7000 nM | 189000 ± 3000 nM |
